Measurements: patent US6825170B2, “6-O-acyl ketolide antibacterials” (Ortho-McNeil Pharmaceutical, Inc., priority 2001, dated 2004)
Values after ≈ are worked out from the molar mass of the structure shown.

Tests used:
Assay in all cases: MIC, microdilution broth method (NCCLS)
Format in all cases: cell-based
Conditions in all cases: 35° C., 16-20 hours
[1] = system: E. faecalis ATCC29212
Procedure: (§1) Minimal inhibitory concentration (MIC) has been an indicator of in vitro antibacterial activity widely used in the art. The in vitro antimicrobial activity of the compounds was determined by the microdilution broth method following the test method from the National Committee for Clinical Laboratory Standards (NCCLS). This method is described in the NCCLS Document M7-A4, Vol.17, No.2, “Methods for Dilution Antimicrobial Susceptibility Test for Bacteria that Grow Aerobically—Fourth Edition”, which is incorporated herein by reference.
(§2) In this method two-fold serial dilutions of drug in cation adjusted Mueller-Hinton broth are added to wells in microdilution trays. The test organisms are prepared by adjusting the turbidity of actively growing broth cultures so that the final concentration of test organism after it is added to the wells is approximately 5×10^4 CFU/well.
(§3) Following inoculation of the microdilution trays, the trays are incubated at 35° C. for 16-20 hours and then read. […] The amount of growth in the wells containing the test compound is compared with the amount of growth in the growth-control wells (no test compound) used in each tray. As set forth in Table 1, compounds of the present invention were tested against a variety of Gram positive and Gram negative pathogenic bacteria resulting in a range of activities depending on the organism tested.

[2] = system: H. influenzae ATCC49247
Procedure: as §1, §2, §3

[3] = system: S. aureus ATCC29213
Procedure: as §1, §2, §3

[4] = system: S. pneumoniae ATCC49619
Procedure: as §1, §2, §3

Structure (SMILES)	MIC (C: E. faecalis ATCC29212) [1] [µg/mL]	MIC (E: H. influenzae ATCC49247) [2] [µg/mL]	MIC (B: S. aureus ATCC29213) [3] [µg/mL]	MIC (D: S. pneumoniae ATCC49619) [4]
CC[C@H]1OC(=O)[C@H](C)C(=O)[C@H](C)[C@@H](O[C@@H]2O[C@H](C)C[C@H](N(C)C)[C@H]2O)[C@](C)(OC(=O)NNC(C)=O)C[C@@H](C)C(=O)[C@H](C)[C@H]2NC(=O)O[C@@]21C [Compound 812]	4 (≈ 5.72 µM)	>16	>16	2 µg/mL (≈ 2.86 µM)
CCC1OC(=O)C(C)C(=O)C(C)C(OC2OC(C)CC(N(C)C)C2O)C(C)(OC(=O)OCC=Cc2nc3ccccc3n2C)CC(C)C(=O)C(C)C2NC(=O)OC12C (centres unmarked) [Compound 55]	0.12 (≈ 0.148 µM)	1 (≈ 1.23 µM)	0.25 (≈ 0.308 µM)	0.03 µg/mL (≈ 0.0369 µM)
CC[C@H]1OC(=O)[C@H](C)C(=O)[C@H](C)[C@@H](O[C@@H]2O[C@H](C)C[C@H](N(C)C)[C@H]2O)[C@](C)(OC(=O)NN=Cc2ccc(-c3ncccn3)cc2)C[C@@H](C)C(=O)[C@H](C)[C@H]2NC(=O)O[C@@]21C [Compound 825]	0.5 (≈ 0.608 µM)	16 (≈ 19.4 µM)	4 (≈ 4.86 µM)	0.12 µg/mL (≈ 0.146 µM)
CC[C@H]1OC(=O)[C@H](C)C(=O)[C@H](C)[C@@H](O[C@@H]2O[C@H](C)C[C@H](N(C)C)[C@H]2O)[C@](C)(OC(=O)NN=C/C=C/c2ccc(-c3ncccn3)cc2)C[C@@H](C)C(=O)[C@H](C)[C@H]2NC(=O)O[C@@]21C [Compound 827]	1 (≈ 1.18 µM)	8 (≈ 9.42 µM)	1 (≈ 1.18 µM)	0.12 µg/mL (≈ 0.141 µM)
CC[C@H]1OC(=O)[C@H](C)C(=O)[C@H](C)[C@@H](O[C@@H]2O[C@H](C)C[C@H](N(C)C)[C@H]2O)[C@](C)(OC(=O)SCc2ccccc2)C[C@@H](C)C(=O)[C@H](C)[C@H]2NC(=O)O[C@@]21C [Compound 831]	0.25 (≈ 0.334 µM)	8 (≈ 10.7 µM)	2 (≈ 2.67 µM)	0.06 µg/mL (≈ 0.0801 µM)
CC[C@H]1OC(=O)[C@H](C)C(=O)[C@H](C)[C@@H](O[C@@H]2O[C@H](C)C[C@H](N(C)C)[C@H]2O)[C@](C)(OC(=O)NNS(=O)(=O)c2ccc(-n3cccn3)cc2)C[C@@H](C)C(=O)[C@H](C)[C@H]2NC(=O)O[C@@]21C [Compound 811]	0.5 (≈ 0.579 µM)	4 (≈ 4.63 µM)	2 (≈ 2.32 µM)	0.06 µg/mL (≈ 0.0695 µM)
CCC1OC(=O)C(C)C(=O)C(C)C(OC2OC(C)CC(N(C)C)C2O)C(C)(OC(=O)OCC=C(C)c2ccc(-c3ncccn3)cc2)CC(C)C(=O)C(C)C2NC(=O)OC12C (centres unmarked) [Compound 76]	0.12 (≈ 0.141 µM)	1 (≈ 1.18 µM)	0.25 (≈ 0.294 µM)	0.03 µg/mL (≈ 0.0353 µM)
CCC1OC(=O)C(C)C(=O)C(C)C(OC2OC(C)CC(N(C)C)C2O)C(C)(OC(=O)OCC=Cc2ccc(-c3ncccn3)s2)CC(C)C(=O)C(C)C2NC(=O)OC12C (centres unmarked) [Compound 64]	0.06 (≈ 0.0712 µM)	1 (≈ 1.19 µM)	0.12 (≈ 0.142 µM)	0.03 µg/mL (≈ 0.0356 µM)
CCc1cnc(-c2ccc(C=CCOC(=O)OC3(C)CC(C)C(=O)C(C)C4NC(=O)OC4(C)C(CC)OC(=O)C(C)C(=O)C(C)C3OC3OC(C)CC(N(C)C)C3O)cc2)nc1 (centres unmarked) [Compound 58]	0.5 (≈ 0.578 µM)	4 (≈ 4.62 µM)	0.5 (≈ 0.578 µM)	0.06 µg/mL (≈ 0.0694 µM)
CCC1OC(=O)C(C)C(=O)C(C)C(OC2OC(C)CC(N(C)C)C2O)C(C)(OC(=O)OCC#Cc2cc(-c3ccccn3)no2)CC(C)C(=O)C(C)C2NC(=O)OC12C (centres unmarked) [Compound 122]	0.06 (≈ 0.0727 µM)	1 (≈ 1.21 µM)	0.12 (≈ 0.145 µM)	≦0.015 μg/mL
CC[C@H]1OC(=O)[C@H](C)C(=O)[C@H](C)[C@@H](O[C@@H]2O[C@H](C)C[C@H](N(C)C)[C@H]2O)[C@](C)(OC(=O)NN(C(C)=O)S(=O)(=O)c2ccc(C)cc2)C[C@@H](C)C(=O)[C@H](C)[C@H]2NC(=O)O[C@@]21C [Compound 810]	0.5 (≈ 0.586 µM)	4 (≈ 4.69 µM)	2 (≈ 2.34 µM)	0.06 µg/mL (≈ 0.0703 µM)
CCC1OC(=O)C(C)C(=O)C(C)C(OC2OC(C)CC(N(C)C)C2O)C(C)(OC(=O)OCC=Cc2cnn(-c3ccccc3)c2)CC(C)C(=O)C(C)C2NC(=O)OC12C (centres unmarked) [Compound 33]	0.12 (≈ 0.145 µM)	1 (≈ 1.21 µM)	0.25 (≈ 0.303 µM)	0.06 µg/mL (≈ 0.0727 µM)
CCC1OC(=O)C(C)C(=O)C(C)C(OC2OC(C)CC(N(C)C)C2O)C(C)(OC(=O)OCC=Cc2cn(-c3ncccn3)cn2)CC(C)C(=O)C(C)C2NC(=O)OC12C (centres unmarked) [Compound 34]	0.12 (≈ 0.145 µM)	1 (≈ 1.21 µM)	0.25 (≈ 0.302 µM)	0.03 µg/mL (≈ 0.0363 µM)

Continued, values first:

MIC (C: E. faecalis ATCC29212) [1] [µg/mL]	MIC (E: H. influenzae ATCC49247) [2] [µg/mL]	MIC (B: S. aureus ATCC29213) [3] [µg/mL]	MIC (D: S. pneumoniae ATCC49619) [4]	Structure (SMILES)
0.06 (≈ 0.0702 µM)	0.5 (≈ 0.585 µM)	0.12 (≈ 0.14 µM)	≦0.015 μg/mL	CCC1OC(=O)C(C)C(=O)C(C)C(OC2OC(C)CC(N(C)C)C2O)C(C)(OC(=O)OCC(F)=Cc2ccc(-c3cccnn3)cc2)CC(C)C(=O)C(C)C2NC(=O)OC12C (centres unmarked) [Compound 168]
1 (≈ 1.27 µM)	16 (≈ 20.3 µM)	4 (≈ 5.06 µM)	0.25 µg/mL (≈ 0.316 µM)	CC[C@H]1OC(=O)[C@H](C)C(=O)[C@H](C)[C@@H](O[C@@H]2O[C@H](C)C[C@H](N(C)C)[C@H]2O)[C@](C)(OC(=O)NNC(=O)N(C)c2ccccc2)C[C@@H](C)C(=O)[C@H](C)[C@H]2NC(=O)O[C@@]21C [Compound 815]
0.25 (≈ 0.287 µM)	4 (≈ 4.6 µM)	0.25 (≈ 0.287 µM)	0.03 µg/mL (≈ 0.0345 µM)	CC[C@H]1OC(=O)[C@@](C)(F)C(=O)[C@H](C)[C@@H](O[C@@H]2O[C@H](C)C[C@H](N(C)C)[C@H]2O)[C@](C)(OC(=O)NOC/C=C/c2ccc(-c3ncccn3)cc2)C[C@@H](C)C(=O)[C@H](C)[C@H]2NC(=O)O[C@@]21C [Compound 622]
0.06 (≈ 0.0726 µM)	0.5 (≈ 0.605 µM)	0.25 (≈ 0.303 µM)	≦0.015 μg/mL	CCC1OC(=O)C(C)C(=O)C(C)C(OC2OC(C)CC(N(C)C)C2O)C(C)(OC(=O)OCC=Cc2ccc(-n3cncn3)cc2)CC(C)C(=O)C(C)C2NC(=O)OC12C (centres unmarked) [Compound 22]
1 (≈ 1.17 µM)	>16	16 (≈ 18.8 µM)	0.25 µg/mL (≈ 0.293 µM)	CC[C@H]1OC(=O)[C@H](C)C(=O)[C@H](C)[C@@H](O[C@@H]2O[C@H](C)C[C@H](N(C)C)[C@H]2O)[C@](C)(OC(=O)N(C)N(C)Cc2ccc(-c3cnccn3)cc2)C[C@@H](C)C(=O)[C@H](C)[C@H]2NC(=O)O[C@@]21C [Compound 819]
0.12 (≈ 0.141 µM)	4 (≈ 4.71 µM)	0.25 (≈ 0.294 µM)	0.03 µg/mL (≈ 0.0353 µM)	CCC1OC(=O)C(C)C(=O)C(C)C(OC2OC(C)CC(N(C)C)C2O)C(C)(OC(=O)OCCC#Cc2ccc(-c3ncccn3)cc2)CC(C)C(=O)C(C)C2NC(=O)OC12C (centres unmarked) [Compound 137]
0.06 (≈ 0.0717 µM)	0.5 (≈ 0.597 µM)	0.12 (≈ 0.143 µM)	0.03 µg/mL (≈ 0.0358 µM)	CCC1OC(=O)C(C)C(=O)C(C)C(OC2OC(C)CC(N(C)C)C2O)C(C)(OC(=O)OCC=Cc2cccc(-c3ncccn3)c2)CC(C)C(=O)C(C)C2NC(=O)OC12C (centres unmarked) [Compound 15]
1 (≈ 1.18 µM)	16 (≈ 18.9 µM)	2 (≈ 2.36 µM)	0.25 µg/mL (≈ 0.295 µM)	CCC1OC(=O)C(C)C(=O)C(C)C(OC2OC(C)CC(N(C)C)C2O)C(C)(OC(=O)OCC=Cc2ccc(-c3cccs3)s2)CC(C)C(=O)C(C)C2NC(=O)OC12C (centres unmarked) [Compound 73]
1 (≈ 1.31 µM)	16 (≈ 21 µM)	16 (≈ 21 µM)	0.25 µg/mL (≈ 0.329 µM)	CC[C@H]1OC(=O)[C@H](C)C(=O)[C@H](C)[C@@H](O[C@@H]2O[C@H](C)C[C@H](N(C)C)[C@H]2O)[C@](C)(OC(=O)NNC(=O)c2ccccc2)C[C@@H](C)C(=O)[C@H](C)[C@H]2NC(=O)O[C@@]21C [Compound 813]
0.12 (≈ 0.143 µM)	1 (≈ 1.19 µM)	0.25 (≈ 0.297 µM)	0.06 µg/mL (≈ 0.0713 µM)	CCC1OC(=O)C(C)C(=O)C(C)C(OC2OC(C)CC(N(C)C)C2O)C(C)(OC(=O)OCC=Cc2ccc(-c3ccccn3)s2)CC(C)C(=O)C(C)C2NC(=O)OC12C (centres unmarked) [Compound 63]
